# Test results: patent US7348425B2, “Inhibitors of HCV replication” (Bristol-Myers Squibb Company, priority 2004, dated 2008)
# pEC50, pIC50: −log10 of the molar value.
# Columns and labels:
# HCV replicon [1] = assay: HCV replicon luciferase assay; assay type: cell-based, Hepatitis C virus; details: Hepatitis C virus, read-out: EC50
# Description: To prepare plates, HCV replicon cells, with or without a Renilla luciferase reporter gene, were trypsinized and placed into each well of a 96-well plate with titrated test compounds added in columns 3 through 12; columns 1 and 2 contained a control compound (HCV protease inhibitor), and the bottom row contained cells without compound. The plates were then placed in a CO2 incubator at 37 degrees C.
# Assays. Subsequent to addition of the test compounds described above (FRET Assay Preparation), at various times the plate was removed and Alamar blue solution (Trek Diagnostics, #00-100) was added per well as a measure of cellular toxicity. After reading in a Cytoflour 4000 instrument (PE Biosystems), plates were rinsed with PBS and then used for FRET assay by the addition of 30 ul of the FRET peptide assay reagent described above (FRET Assay Preparation) per well. The plate was then placed into the Cytoflour 4000 instrument which had been set to 340 excite/490 emission, automatic mode for 20 cycles and the plate read in a kinetic mode. Typically, the signal to noise using an endpoint analysis after the reads was at least three-fold. Alternatively, after Alamar blue reading, plates were rinsed with PBS, 50 ul of DMEM (high glucose) without phenol red was added and plates were then used for luciferase assay using the Promega Dual-Glo Luciferase Assay System.
# Compound analysis was determined by quantification of the relative HCV replicon inhibition and the relative cytotoxicity values. To calculate cytoxicity values, the average Alamar Blue fluorescence signals from the control wells were set as 100% non-toxic. The individual signals in each of the compound test wells were then divided by the average control signal and multiplied by 100% to determine […]. To calculate the HCV replicon inhibition values, an average background value was obtained from the two wells containing the highest amount of HCV protease inhibitor at the end of the assay period. These numbers were similar to those obtained from naïve Huh-7 cells.
# The background numbers were then subtracted from the average signal obtained from the control wells and this number was used as 100% activity. The individual signals in each of the compound test wells were then divided by the averaged control values after background subtraction and multiplied by 100% to determine percent activity. EC50 values for a protease inhibitor titration were calculated as the concentration which caused a 50% reduction in FRET or luciferase activity. The two numbers generated for the compound plate, percent cytoxicity and percent activity were used to determine compounds of interest for further analysis.
# [2] = target: T1, HCV NS5B RdRp genotype 1b (Hepatitis C virus genotype 1b, UniProt Q9WMX2); assay: Modified HCV NS5B RdRp enzyme assay (with preincubation); assay type: biochemical
# T1 construct: The protein was expressed with an 18 amino acid C-terminal truncation to enhance the solubility; made in house; host or cells: E. coli BL21 (DE3), pET21a
# Outline: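 C-terminally truncated (Δ18) genotype 1b NS5B from E. coli was preincubated (14 nM) with compound, then reaction started with polyA template (0.2 nM), ³H-UTP (0.29 μM) and dT12 primer (20 nM) precaptured on SPA beads. Reaction ran 4 h at 30 °C in pH 7.5 Hepes buffer with 2% DMSO. IC50 came from seven concentrations.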
# HCV replicon [3] = assay: HCV replicon FRET assay; assay type: cell-based; details: Hepatitis C virus; FRET assay; read-out: EC50
# Outline: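 Replicon cells (± Renilla luciferase reporter) incubated with titrated compound at 37 °C; NS3 protease activity read by FRET peptide cleavage (20 uM EDANS/DABCYL substrate, 340/490 nm kinetic) or luciferase.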
# [4] = cells marked **: Luciferase assay
# [5] = modified method (with preincubation)
# T1 sequence (Q9WMX2 2420-2992): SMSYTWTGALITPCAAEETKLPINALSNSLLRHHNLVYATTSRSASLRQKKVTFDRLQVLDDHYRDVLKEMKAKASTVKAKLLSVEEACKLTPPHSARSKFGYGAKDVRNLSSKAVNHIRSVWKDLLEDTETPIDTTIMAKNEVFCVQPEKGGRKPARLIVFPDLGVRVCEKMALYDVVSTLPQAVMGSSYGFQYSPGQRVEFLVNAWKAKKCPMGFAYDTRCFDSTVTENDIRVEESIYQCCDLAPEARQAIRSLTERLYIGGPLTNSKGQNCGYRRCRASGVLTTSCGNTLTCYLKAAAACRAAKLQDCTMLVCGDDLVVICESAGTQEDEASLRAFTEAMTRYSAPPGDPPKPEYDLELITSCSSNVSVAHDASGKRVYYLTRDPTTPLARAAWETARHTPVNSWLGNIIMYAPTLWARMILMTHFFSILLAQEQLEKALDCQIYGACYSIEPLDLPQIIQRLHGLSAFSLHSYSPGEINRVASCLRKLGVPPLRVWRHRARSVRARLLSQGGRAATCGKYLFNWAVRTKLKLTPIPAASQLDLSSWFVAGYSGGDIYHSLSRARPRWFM
SMILES,pEC50 (HCV replicon [1]; [4]),"pIC50 [2, 5]",pEC50 (HCV replicon [3]),also measured
O=C1Cn2c(c(C3CCCCC3)c3ccc(C(=O)O)cc32)N1,< 5.00,–,–,–
O=C(O)c1ccc2c(C3CCCCC3)c3n(c2c1)CC/C=C\Nc1ccccc1-3,5.00 to 6.00,–,–,–
CCOC(=O)/C=C/c1ccc(NC(=O)C2(N(C)C(=O)c3ccc4c(C5CCCCC5)c5n(c4c3)CCCc3ccccc3-5)CCCC2)cc1,5.00 to 6.00,< 6.00,–,–
O=C(O)/C=C/c1ccc(NC(=O)C2(NC(=O)c3ccc4c(C5CCCCC5)c5n(c4c3)CCCc3ccccc3-5)CCCC2)cc1,6.00 to 8.00,6.00 to 7.70,–,–
O=C(O)c1ccc2c(C3CCCCC3)c3n(c2c1)CCOc1ccccc1-3,6.00 to 8.00,–,–,–
COC(=O)c1ccc2c(C3CCCCC3)c3n(c2c1)CC(NC(=O)N1CCOCC1)Cc1ccccc1-3 (stereo not shown),5.00 to 6.00,–,–,–
CCNC(=O)N(CCCN(C)C)C(=O)c1ccc2c(C3CCCCC3)c3n(c2c1)CCCc1ccccc1-3,5.00 to 6.00,–,–,–
O=C(O)c1ccc2c(C3CCCCC3)c3n(c2c1)CC(=O)N3c1ccccc1,< 5.00,–,–,–
Cn1c(-c2ccccc2)c(C2CCCCC2)c2ccc(C(=O)NC3(c4nnnn4CC(=O)O)CCCC3)cc21,< 5.00,–,–,–
COC(=O)c1ccc2c(C3CCCCC3)c3n(c2c1)CC(=O)N3,5.00 to 6.00,–,–,–
O=C(O)/C=C/c1ccc(NC(=O)C2(NC(=O)c3ccc4c(C5CCCCC5)c5n(c4c3)CCCc3occc3-5)CCCC2)cc1,–,–,–,pEC50 (HCV replicon [1]; luciferase method): > 7.00
"COC(=O)c1ccc2c(C3CCCCC3)c3n(c2c1)CC=Cc1cc(OCc2ccccc2)ccc1-3 [Example 4, Methyl 13-cyclohexyl-3-benzyloxy-7H-indolo[2,1-a][2]benzazepine-10-carboxylate]",–,–,–,pEC50 (HCV replicon [1]; luciferase method): < 5.00
COC(=O)c1ccc2c(C3CCCCC3)c3n(c2c1)CC(=O)N3c1ccccc1,< 5.00,–,–,–
O=C(O)c1ccc2c(C3CCCCC3)c3n(c2c1)CC(=O)N3Cc1ccccc1,< 5.00,–,–,–
O=C(O)c1ccc2c(C3CCCCC3)c3n(c2c1)CCCn1ccnc1-3,< 5.00,–,–,–
COC1c2ccccc2-c2c(C3CCCCC3)c3ccc(C(=O)NC4(C(=O)Nc5ccc(/C=C/C(=O)O)cc5)CCCC4)cc3n21 (stereo not shown),6.00 to 8.00,6.00 to 7.70,–,–
"O=C(O)c1ccc2c(C3CCCCC3)c3n(c2c1)CCOc1cccnc1-3 [Example 13, 13-cyclohexyl-6,7-dihydropyrido[2′,3′:6,7][1,4]oxazepino[4,5-a]indole-10-carboxylic acid]",–,–,–,pEC50 (HCV replicon [1]; luciferase method): 6.00 to 7.00
CC(C)(C)OC(=O)/C=C/c1ccc(NC(=O)C2(NC(=O)c3ccc4c(C5CCCCC5)c5n(c4c3)CC(=O)N5Cc3ccccc3)CCCC2)cc1,< 5.00,–,–,–
O=C(O)c1ccc2c(C3CCCCC3)c3n(c2c1)CC(C(=O)O)Cc1ccccc1-3 (stereo not shown) [drawing 147],< 5.00,–,–,–
"COC(=O)c1ccc2c(C3CCCCC3)c3n(c2c1)CC=Cc1ccccc1-3 [Example 1, Methyl 13-cyclohexyl-7H-indolo[2,1-a][2]benzazepine-10-carboxylate]",–,–,–,pEC50 (HCV replicon [1]; luciferase method): < 5.00
CCOC(=O)/C=C/c1ccc(NC(=O)C2(NC(=O)c3ccc4c(C5CCCCC5)c5n(c4c3)C(OC)c3ccccc3-5)CCCC2)cc1 (stereo not shown),5.00 to 6.00,–,–,–
CCOC(=O)c1cc2ccccc2c2c(C3CCCCC3)c3ccc(C(=O)OC)cc3n12 [drawing 141],< 5.00,–,–,–
COC(=O)c1ccc2c(C3CCCCC3)c3n(c2c1)CC(=O)N3Cc1ccccc1,5.00 to 6.00,–,–,–

SMILES,pEC50 (HCV replicon [1]; [4]),"pIC50 [2, 5]",pEC50 (HCV replicon [3]),also measured
O=C(O)/C=C/c1ccc(NC(=O)C2(NC(=O)c3ccc4c(C5CCCCC5)c5n(c4c3)CCCn3ccnc3-5)CCCC2)cc1,5.00 to 6.00,6.00 to 7.70,–,–
COC(=O)/C=C/c1ccc(NC(=O)C2(NC(=O)c3ccc4c(C5CCCCC5)c5n(c4c3)CCCc3occc3-5)CCCC2)cc1,–,–,–,pEC50 (HCV replicon [1]; luciferase method): 6.00 to 7.00
"COC(=O)c1ccc2c(C3CCCCC3)c3n(c2c1)CCCc1cc(O)ccc1-3 [Example 5, Methyl 13-cyclohexyl-3-hydroxy-6,7-dihydro-5H-indolo[2,1-a][2]benzazepine-10-carboxylate]",–,–,–,pEC50 (HCV replicon [1]; luciferase method): < 5.00
CCOC(=O)/C=C/c1ccc(NC(=O)C2(NC(=O)c3ccc4c(C5CCCCC5)c5n(c4c3)CC(=O)Nc3ccccc3-5)CCCC2)cc1,6.00 to 8.00,–,–,–
O=C(O)/C=C/c1ccc(NC(=O)C2(NC(=O)c3ccc4c(C5CCCCC5)c5n(c4c3)C/C=C\CNc3ccccc3-5)CCCC2)cc1,6.00 to 8.00,6.00 to 7.70,–,–
CCOC(=O)/C=C/c1ccc(NC(=O)C2(NC(=O)c3ccc4c(C5CCCCC5)c5n(c4c3)CCCc3cc(O)ccc3-5)CCCC2)cc1,–,< 6.00,6.00 to 8.00,–
COc1cc(CNC(=O)c2ccc3c(C4CCCCC4)c4n(c3c2)CC(=O)Nc2ccccc2-4)ccc1O,–,6.00 to 7.70,> 7.00,–
CN(C)CCNC(=O)C1=Cc2ccccc2-c2c(C3CCCCC3)c3ccc(C(=O)NC4(C(=O)Nc5ccc(/C=C/C(=O)O)cc5)CCCC4)cc3n2C1,–,6.00 to 7.70,6.00 to 8.00,–
C[C@@H]1CN(C(=O)C2=Cc3cc(F)ccc3-c3c(C4CCCCC4)c4ccc(C(=O)O)cc4n3C2)C[C@H](C)N1,–,–,6.00 to 7.30,pIC50 ([2]; preincubation protocol): 6.00 to 8.00
CN(C)S(=O)(=O)NC(=O)c1ccc2c(C3CCCCC3)c3n(c2c1)CC(C(=O)O)=Cc1ccccc1-3,–,6.00 to 7.70,< 5.00,–
COc1ccc2c(c1)C=C(C(=O)N(C)CCO)Cn1c-2c(C2CCCCC2)c2ccc(C(=O)NS(=O)(=O)N(C)C)cc21,–,–,6.00 to 7.30,pIC50 ([2]; preincubation protocol): > 7.70
O=C(O)c1ccc2c(C3CCCCC3)c3n(c2c1)CC(C(=O)N1CCOCC1)=Cc1cccnc1-3,–,6.00 to 7.70,6.00 to 8.00,–
CCS(=O)(=O)NC(=O)c1ccc2c(C3CCCCC3)c3n(c2c1)CC(C(=O)N1CCOCC1)=Cc1ccccc1-3,–,6.00 to 7.70,6.00 to 8.00,–
COC(=O)c1ccc2c(C3CCCCC3)c3n(c2c1)C(O)c1cc(OC)ccc1-3 (stereo not shown),–,–,< 7.00,pIC50 ([2]; preincubation protocol): < 6.00
C[C@@H]1CN(C(=O)C2=Cc3ccccc3-c3c(C4CCCCC4)c4ccc(C(=O)NC5(C(=O)Nc6ccc(-c7cnco7)cc6)CCCC5)cc4n3C2)C[C@H](C)O1,–,–,6.00 to 7.30,pIC50 ([2]; preincubation protocol): 6.00 to 8.00
COC(=O)c1ccc2c(C3CCCCC3)c3n(c2c1)CC(O)Cc1ccccc1-3 (stereo not shown),–,< 6.00,6.00 to 8.00,–
COC(=O)C1=Cc2cccnc2-c2c(C3CCCCC3)c3ccc(C(=O)OC)cc3n2C1,–,< 6.00,5.00 to 6.00,–
COC(=O)c1ccc2c(C3CCCCC3)c3n(c2c1)CC(C(=O)O)Cc1ccccc1-3 (stereo not shown),–,< 6.00,< 5.00,–
CC(C)(C)S(=O)(=O)NC(=O)c1ccc2c(C3CCCCC3)c3n(c2c1)CC(C(=O)N1CCOCC1)=Cc1ccccc1-3,–,6.00 to 7.70,6.00 to 8.00,–
COC(=O)c1ccc2c(C3CCCCC3)c3n(c2c1)CC(C(=O)N1C[C@@H](C)O[C@@H](C)C1)=Cc1cc(F)ccc1-3,–,–,5.00 to 6.00,pIC50 ([2]; preincubation protocol): < 6.00
Nc1nc2c(s1)CCCn1c-2c(C2CCCCC2)c2ccc(C(=O)NC3(C(=O)Nc4ccc(/C=C/C(=O)O)cc4)CCCC3)cc21,–,6.00 to 7.70,5.00 to 6.00,–
CC1=C(C(=O)N2CCOCC2)Cn2c(c(C3CCCCC3)c3ccc(C(=O)O)cc32)-c2ccccc21,–,6.00 to 7.70,6.00 to 8.00,–
